The test system of one experiment is GSK-3. Description: Reverse phase protein array (RPPA). It counts as cell-based, human. The conditions noted are these: peptides at 3 μM, 3 h and 24 h (peptide 7: 24 h only), seven cell lines; fold difference vs water control. From the text:
The phenotypic effect of the peptides was visualized by live cell imaging (Figure 1C, IncuCyte live cell imager) and also quantified via image analysis of cells labeled with the cell painting reagents (see Supporting Information) followed by image analysis using Cell Profiler (cellprofiler.org). Multiparametric outputs from Cell Profiler were processed using Phenonaut[46] [v 2.0.3] (see Jupyter notebook ‘Phenonaut_processing_of_nullomer_data.ipynb’ in the Aminonaut repository for methods and code used). […] Peptides 2, 5, and 7 were deemed to have the most merit for mode of action determination using reverse phase protein arrays (RPPAs) (see Supporting Information for methods). […]
growth and stemness was further supported by the addition of laminin extracellular matrix (Cultrex 3446-005-01, 4-10 mg/mL) to the growth media and to create pre-coated flasks/384w plates. Cells were cultured in T75 cm2 flasks and passaged as follows: Glioma stem cells generally grow slowly (~60hrs doubling time, excepting GCGR-E57 cells ~24hrs) and lag phase was exacerbated by sparse seeding. Cell confluence is generally ~80 -90% prior to passaging, whereby the culture media was aspirated, the cells washed (PBS) and Accutase solution (Sigma A6964, 1 mL) was added to detach the cells, which were then incubated at 37 °C for <5 minutes. Cells were resuspended in media and centrifuged for 3 minutes at 300 × g. Resuspended cells were typically split 1:5, 1:8 (GCGR-E57 cells) and 1:2, 1:4 for the remainder of cell lines, depending on requirements . Cells were passaged every 4-7 days to maintain health and growth and discarded after 3 months, whereupon a fresh batch of cells […]
Reverse Phase Protein Array (RPPA)
Culture media was aspirated and cells washed with wash media. Accutase solution (1mL) was used to detach the cells which were then incubated at 37 °C for 5 minutes. 10 mL of wash media was added, and the cells were pipetted into a 15 mL conical tube, after which they were centrifuged for 3 minutes at 300× g to form a pellet. Supernatant was aspirated, and cells resuspended in 5 mL of wash media. A 10 μL sample of the cell suspension was pipetted onto the reading surface of a DeNovix CellDrop automated cell counter and the reading was used to dilute the suspension in complete media to 250,000 cells/mL. 2 mL of this suspension was added to each well of 6-well plates to seed plates at 500,000 cells per well. 2 plates of each cell type (GCGR-E13, GCGR-E21, GCGR-E28, GCGR-E31, GCGR-E34, GCGR-E57 and GCGR-NS9FB_B) were seeded, one each for two nullomer dosage […]
timepoints (3 h and 24 h). The cells were incubated in the 6-well plates overnight, and dosing was carried out in the following morning. […]

A further experiment concerns GCGR-E34. It counts as cell-based, human. To be noted: 72 h. As for the experimental part:
(§1) Peptides were tested in an automated image-based high-content[42] cell painting[43],[44] assay that was originally developed to explore the mechanism of action of pharmacological and genetic perturbations within cells,[45] as well as a live cell imaging assay against six patient-derived glioblastoma cell lines (GCGR-E13, GCGR-E28, GCGR-E21, GCGR-E57, GCGR-E31, and GCGR-E34), covering classical, mesenchymal, and proneural subtypes, respectively (see Methods and Figure 1B–D), along with a healthy human fetal neuronal stem cell line (GCGR-NS9FB_B).
(§2) Cell survival was quantified by nuclei counts from the Hoechst dye-stained nuclei and IC50 values calculated along with 95% confidence intervals (Figure 1B; see Table S2 for full details). […]
(§3) High Content Phenotypic Screening assays
(§4) Cell lines (glioma stem cell lines and normal foetal neural stem cells) were seeded on laminin (10 µg/mL) coated 384-well plates (Greiner Bio-One, 781091) at 1,000 cells/well and incubated overnight at 37 °C and 5% CO2. Aqueous peptide solutions (10 mM) were further diluted to 1 mM in water containing 10 % glycerol and 0.01 % TX-100. […]
(§5) The cells were placed in an IncuCyte live cell imager (Essen BioScience) and imaged every three hours for 72 hours. Prior to fixation, the plates were removed from the IncuCyte and stained with Mitrotracker DeepRed (Invitrogen, M22426, 300 nM, 30 minutes). Cells were then fixed using 4 % formaldehyde and permeabilized with 0.1 % TX-100 in PBS. The cells were stained with ‘Cell Painting’ […]
(§6) assay reagents1: Hoechst 33342 (10 mg/mL stock, Molecular Probes, 1:5000), SYTO14 […]
(§7) BSA/PBS. The plates were imaged using an ImageXpress high content microscope (Molecular Devices). Cells were imaged with a 20× objective, covering 6 fields-of-view in each well. The data was then analyzed using a custom CellProfiler software pipeline using the University of Edinburgh high performance computing cluster. Dose response plots were calculated using HC StratomineR (corelifeanalytics.com). Nuclei count data was analyzed separately to generate cell survival metrics (normalized to aqueous glycerol/TX -100 control). […]

A further experiment concerns GCGR-E13. It counts as cell-based, human. To be noted: 72 h. As for the experimental part:
as §1, §2, §3, §4, §5, §6, §7

In a further experiment the test system is GCGR-E21. It counts as cell-based, human. The conditions noted are these: 72 h. The procedure: as §1, §2, §3, §4, §5, §6, §7
The subject of a further experiment is GCGR-E31. The class given is cell-based, human. To be noted: 72 h. As for the experimental part: as §1, §2, §3
(§8) Cell lines (glioma stem cell lines and normal foetal neural stem cells) were seeded on laminin (10 µg/mL) coated 384-well plates (Greiner Bio-One, 781091) at 1,000 cells/well and incubated overnight at 37 °C and 5% CO2. Aqueous peptide solutions (10 mM) were further diluted to 1 mM in water containing 10 % glycerol and 0.01 % TX-100. Cells were dosed using a D300 digital dispenser (Tecan) by 10-point dose response (30 µM – 1 µM) in triplicate and with aqueous glycerol/TX-100 as control. The cells were placed in an IncuCyte live cell imager (Essen BioScience) and imaged every three hours for 72 hours. Prior to fixation, the plates were removed from the IncuCyte and stained with Mitrotracker DeepRed (Invitrogen, M22426, 300 nM, 30 minutes). Cells were then fixed using 4 % formaldehyde and permeabilized with 0.1 % TX-100 in PBS. The cells were stained with ‘Cell Painting’ […]
as §6, §7

For the next experiment, the system named is GCGR-E57. The class given is cell-based, human. To be noted: 72 h. The procedure: as §1, §2, §3, §8, §6, §7
A further experiment relates to GCGR-NS9FB_B. The class given is cell-based, human. The conditions noted are these: 72 h. The procedure: as §1, §2, §3, §8, §6, §7
A further experiment concerns GCGR-E28. The class given is cell-based, human. The conditions noted are these: 72 h. The procedure: as §1, §2, §3, §8, §6, §7
Experiment [1] deals with normal cell lines and cancer cell lines. The conditions noted are these: cited from earlier work. From the text:
(§9) Closely related to nullomer peptides, rarely observed amino acid stretches have also been studied by Capone et al., who assert that the minimal sufficient antigenic determinants of a protein could be encoded in just five rarely seen amino acids.[20] Complementing this, Patel et al. noted that these rare sequences could be used to enhance antigen-specific immune responses when dosed alongside adjuvant vaccines.[21] It was also noted by Koulouras et al. that human viruses rarely share human nullomers, facilitating host mimicry and immune evasion,[22] an interesting example of this being highligh ...

The next experiment concerns NCI-60 panel. The conditions noted are these: 60 cell lines from human cancers of nine organs; cited from earlier work.
Description: as §9

Non-standard residues stand in square brackets, D forms with d. Residues, ends and D or L forms follow the SMILES beside them. No end group written: not given here. Bounds are passed on as bounds.

Broadly, the IC50 is the concentration at which inhibition is half-maximal. Read a high IC50 as weaker potency.

`N=C(N)NCCC[C@H](NC(=O)[C@H](CCCNC(=N)N)NC(=O)[C@H](CCCNC(=N)N)NC(=O)[C@@H](N)CCCNC(=N)N)C(=O)N[C@@H](CCCNC(=N)N)C(=O)N[C@H](CS)C(=O)N[C@H](CCC(N)=O)C(=O)N[C@H](Cc1c[nH]c2ccccc12)C(=O)N[C@H](Cc1c[nH]c2ccccc12)C(N)=O` [Peptide 3] (H-RRRRR[dC][dQ][dW][dW]-NH2): in the experiment with GSK-3, the “GSK-3 regulation in RPPA” value is “downregulation of GSK-3”. The IC50 stood at 5.3 µM with GCGR-E34; 6.9 µM with GCGR-E13; 7.5 µM with GCGR-E21; 8.7 µM in the experiment on GCGR-E31; 5.4 µM in the experiment on GCGR-E57; 9.7 µM with GCGR-NS9FB_B. Also, the IC50 in the experiment on GCGR-E28 amounted to 8.4 µM.

As to `N=C(N)NCCC[C@H](NC(=O)[C@H](CCCNC(=N)N)NC(=O)[C@H](CCCNC(=N)N)NC(=O)[C@@H](N)CCCNC(=N)N)C(=O)N[C@@H](CCCNC(=N)N)C(=O)N[C@H](Cc1c[nH]c2ccccc12)C(=O)N[C@H](Cc1c[nH]c2ccccc12)C(=O)N[C@H](CCC(N)=O)C(=O)N[C@H](CS)C(N)=O` [Peptide 5] (H-RRRRR[dW][dW][dQ][dC]-NH2), the “GSK-3 regulation in RPPA” value in the experiment with GSK-3 was “downregulation of GSK-3β”. Further, the IC50 was determined as 17.6 µM with GCGR-E34; 13.6 µM in the experiment with GCGR-E13; 16.3 µM in the experiment on GCGR-E21; 15.7 µM in the experiment on GCGR-E31; 9.9 µM with GCGR-E57; 15.9 µM in the experiment with GCGR-NS9FB_B. In the experiment on GCGR-E28, this compound gave an IC50 of 13.2 µM.

For the compound “NWMWC [pentamer peptide nullomer of Alileche et al]”, in experiment [1], the mitochondrial impairment entry is “caused mitochondrial impairment in both normal cell lines and cancer cell lines”. Further, the “lethal effect on NCI-60 panel” value with NCI-60 panel is listed as “lethal to a high fraction of oncogenic cell lines”.

Take “RRRRR-NH2 [Peptide 15, reference compound]”: the IC50 in the experiment on GCGR-E34 amounted to 15.8 µM.

Regarding RRRRRAQWW-NH2 [Peptide 6], the results for the IC50 in the experiment on GCGR-E13, with GCGR-E21 and with GCGR-E28 were 151 µM, 279 µM and 86 µM, respectively.

Regarding RRRRRCAWW-NH2 [Peptide 7], in the experiment on GSK-3, the “GSK-3 regulation in RPPA” value was “downregulation of GSK-3β”. The IC50 in the experiment on GCGR-E34 amounted to 6 µM; in the experiment on GCGR-E13 it was 10.6 µM; with GCGR-E21 it was 11.2 µM; with GCGR-E31 it was 12.1 µM; in the experiment on GCGR-E57, 6.3 µM; in the experiment on GCGR-NS9FB_B it was 11.9 µM. Moreover, it took 9.7 µM to reach half-maximal inhibition in the experiment with GCGR-E28 (IC50).

Turning to RRRRRCQAW-NH2 [Peptide 8], the IC50 in the experiment with GCGR-E34 stood at 100 µM; in the experiment with GCGR-E13, 100 µM; in the experiment with GCGR-E21, 75 µM; in the experiment with GCGR-E31, 238 µM; in the experiment on GCGR-E57, 100 µM; with GCGR-NS9FB_B, 100 µM. Half-maximal inhibition with GCGR-E28 (IC50) required 100 µM.

With RRRRRCQW-NH2 [Peptide 10], the IC50 in the experiment with GCGR-E34 is 154 µM; with GCGR-E13, greater than 100 µM; in the experiment with GCGR-E21 it was greater than 100 µM; with GCGR-E31, greater than 100 µM; in the experiment on GCGR-E57, 108 µM; in the experiment on GCGR-E28 it was 168 µM.

RRRRRCQWA-NH2 [Peptide 9]: the IC50 in the experiment with GCGR-E34 was 15.8 µM; with GCGR-E13 it was greater than 30 µM; in the experiment with GCGR-E21 it was greater than 30 µM; in the experiment on GCGR-E31 it was greater than 30 µM; with GCGR-E57, greater than 30 µM; in the experiment with GCGR-NS9FB_B it was greater than 30 µM. For the same compound, in the experiment with GCGR-E28, the IC50 was greater than 30 µM.

In the case of RRRRRFQWW-NH2 [Peptide 13], the IC50 in the experiment with GCGR-E34 is greater than 100 µM; with GCGR-E13, 52 µM; with GCGR-E21, 81.3 µM; in the experiment with GCGR-E31, 101 µM; in the experiment on GCGR-E57 it was 55.7 µM; with GCGR-E28, 29.6 µM.

For RRRRRHQWW-NH2 [Peptide 14], the IC50 in the experiment with GCGR-E34 is greater than 100 µM; with GCGR-E13, 52 µM; with GCGR-E21, 132 µM; with GCGR-E31, 123 µM; with GCGR-E57, 119 µM; in the experiment with GCGR-E28, 58 µM.

With RRRRRMQWW-NH2 [Peptide 12], the IC50 with GCGR-E34 is greater than 100 µM; with GCGR-E13, 117 µM; with GCGR-E21, 122 µM; in the experiment with GCGR-E31 it was 59.7 µM; in the experiment on GCGR-E57, greater than 100 µM; with GCGR-E28, 100 µM.

On to RRRRRQWW-NH2 [Peptide 11], for which the IC50 in the experiment on GCGR-E34 worked out at 114 µM; with GCGR-E13 it was 110 µM; in the experiment with GCGR-E21, 158 µM; in the experiment on GCGR-E31, 74.3 µM; in the experiment on GCGR-E57, 99.5 µM; with GCGR-E28, 72.6 µM.

On to RRRRRWWQC-NH2 [Peptide 4], for which the IC50 in the experiment with GCGR-E34 worked out at 8.6 µM; in the experiment with GCGR-E13, 13.1 µM; with GCGR-E21, 12.8 µM; in the experiment on GCGR-E31 it was 11.8 µM; in the experiment with GCGR-E57, 9 µM; in the experiment on GCGR-NS9FB_B, 13.8 µM. The IC50 in the experiment on GCGR-E28 came to 10.9 µM.

The values above are taken from publication PMC11865978, “Cellular Activity of CQWW Nullomer-Derived Peptides” (ACS Omega, 2025).
